Assay [1] has as its target Cyclin-dependent kinase 2 (Homo sapiens, UniProt P24941). The assay can be described thus: Inhibitory concentration against cyclin-dependent kinase 2.
In assay [2] the test system is MCF7. The assay can be described thus: Inhibitory activity against BrdU incorporation to MCF-7 cell line following 3 day exposure to compound. The format is functional, cell-based. Conditions: Homo sapiens, MCF7, 72 h.
For assay [3], the target named is Cyclin-dependent kinase 1 (Homo sapiens, UniProt P06493). The assay can be described thus: Inhibition of Cyclin-dependent kinase 1.
Assay [4] deals with Cyclin-dependent kinase 4 (Homo sapiens, UniProt P11802). The assay can be described thus: Inhibition of Cyclin-dependent kinase 4.
Assay [5] concerns MCF7. The assay can be described thus: Inhibition of cyclin-dependent kinase phosphorylation of S249-T252 of Rb protein in MCF-7 cells. The format is functional, cell-based. The settings on record: Homo sapiens.

Molecules are shown by their SMILES.

Chain of Cyclin-dependent kinase 4 (P11802 whole entry): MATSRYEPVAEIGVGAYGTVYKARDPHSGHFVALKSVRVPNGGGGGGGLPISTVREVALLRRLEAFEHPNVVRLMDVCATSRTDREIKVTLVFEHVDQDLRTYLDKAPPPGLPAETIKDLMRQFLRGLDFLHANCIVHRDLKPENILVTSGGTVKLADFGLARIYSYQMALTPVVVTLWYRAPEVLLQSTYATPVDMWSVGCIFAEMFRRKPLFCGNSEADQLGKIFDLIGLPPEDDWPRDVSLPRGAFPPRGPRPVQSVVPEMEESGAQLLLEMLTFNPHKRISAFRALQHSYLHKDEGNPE
Chain of Cyclin-dependent kinase 1 (P06493 whole entry): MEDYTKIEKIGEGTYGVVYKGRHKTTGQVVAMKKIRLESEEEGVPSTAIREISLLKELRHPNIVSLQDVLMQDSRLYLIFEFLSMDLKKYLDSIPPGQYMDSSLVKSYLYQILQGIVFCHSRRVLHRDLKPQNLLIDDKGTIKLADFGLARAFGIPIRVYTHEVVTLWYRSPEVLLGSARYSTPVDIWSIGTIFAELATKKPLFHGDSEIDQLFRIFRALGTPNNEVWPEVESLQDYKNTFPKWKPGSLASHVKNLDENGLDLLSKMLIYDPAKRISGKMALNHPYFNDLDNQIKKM

The IC50 is the point on the concentration scale where inhibition reaches its midpoint. Low values mean greater potency, high ones weaker potency. As to `CN(C)CCCNS(=O)(=O)c1ccc(Nc2nccc(-c3cnc4ccccn34)n2)cc1`, the IC50 was below 0.003 µM in assay [1] and 0.07 µM in assay [2]. For `NS(=O)(=O)c1ccc(Nc2nccc(-c3cnc4ccccn34)n2)cc1`, in assay [1], the IC50 was below 0.003 µM.

For the compound `COCCNS(=O)(=O)c1ccc(Nc2nccc(-c3cnc4ccccn34)n2)cc1`, the IC50 in assay [1] is 0.012 µM; in assay [2], 0.39 µM. Take `CNS(=O)(=O)c1ccc(Nc2nccc(-c3cnc4ccccn34)n2)cc1`: the figures for the IC50 in assay [1] and in assay [2] were below 0.003 µM and 0.26 µM, respectively. As for `Cc1nc2ccccn2c1-c1ccnc(Nc2ccccc2)n1`, the IC50 in assay [1] came to 0.21 µM. On the same count and under the same terms, then `Cc1nc2ccccn2c1-c1ccnc(Nc2cccc(Cl)c2)n1`, with 0.15 µM; and `COCCNS(=O)(=O)c1ccc(Nc2ncc(Cl)c(-c3cnc4ccccn34)n2)cc1`, with below 0.003 µM; and `Clc1cccc(Nc2nccc(-c3cnc4ccccn34)n2)c1`, with 0.005 µM.

Take `CN(C)CCNS(=O)(=O)c1ccc(Nc2nccc(-c3cnc4ccccn34)n2)cc1`: the half-inhibitory concentration (IC50) in assay [1] stood at 0.005 µM; in assay [3] it was 0.015 µM; in assay [4] it was 0.26 µM; in assay [5], 0.05 µM; in assay [2], 0.07 µM. In assay [1], `COCCNS(=O)(=O)c1ccc(Nc2ncc(Sc3ccccc3)c(-c3cnc4ccccn34)n2)cc1` registered an IC50 above 10 µM. On the same count and under the same terms, then `Cc1nc2ccccn2c1-c1ccnc(Nc2ccc(S(N)(=O)=O)cc2)n1`, with 0.038 µM. As to `COCCCNS(=O)(=O)c1ccc(Nc2nccc(-c3cnc4ccccn34)n2)cc1`, the IC50 in assay [1] came to 0.004 µM; in assay [3] it was 0.006 µM; in assay [4], 3.1 µM; in assay [5], 0.4 µM; in assay [2], 0.6 µM.

For the compound `COCCNS(=O)(=O)c1ccc(Nc2nccc(-c3cnc4ccc(Sc5ccccc5)cn34)n2)cc1`, the IC50 in assay [1] was found to be 0.016 µM. With `CN(C)CCCN(C)S(=O)(=O)c1ccc(Nc2nccc(-c3cnc4ccccn34)n2)cc1`, the values for the IC50 in assay [1] and in assay [2] were 0.005 µM and 0.44 µM, respectively. On to `CCSc1ccc2ncc(-c3ccnc(Nc4ccc(S(=O)(=O)NCCOC)cc4)n3)n2c1`, for which the 50% inhibitory concentration (IC50) in assay [1] is below 0.003 µM.

Compound `Cc1nc2ccccn2c1-c1ccnc(Nc2ccc(Cl)cc2)n1` had an IC50 in assay [1] of 0.62 µM.

`COCCNS(=O)(=O)c1ccc(Nc2nccc(-c3cnc4ccc(C#N)cn34)n2)cc1` gave an IC50 in assay [1] below 0.003 µM. Still for that read-out and setting: then `Cc1nc2ccccn2c1-c1ccnc(Nc2ccccc2Cl)n1`, with 8.8 µM. For the compound `c1ccc(Nc2nccc(-c3cnc4ccccn34)n2)cc1`, the IC50 in assay [1] was below 0.003 µM.

As to `Clc1cccc(Nc2nccc(-n3cnc4ccccc43)n2)c1`, it took 0.68 µM to reach half-maximal inhibition in assay [1] (IC50). Compound `COCCNS(=O)(=O)c1ccc(Nc2ncc(Br)c(-c3cnc4ccccn34)n2)cc1` registered an IC50 in assay [1] below 0.003 µM. Still for that read-out and setting: then `COCCNS(=O)(=O)c1ccc(Nc2nccc(-c3cnc4ccc(Br)cn34)n2)cc1`, with below 0.003 µM.

The record behind these values is ChEMBL document CHEMBL1147565, “Imidazo[1,2-a]pyridines. Part 2: SAR and optimisation of a potent and selective class of cyclin-dependent kinase inhibitors” (Bioorg Med Chem Lett, 2004).
